The values below come from ChEMBL document CHEMBL1255296, “Effect of 14-membered-ring macrolides on production of interleukin-8 mediated by protease-activated receptor 2 in human keratinocytes” (Antimicrob Agents Chemother, 2008).

The target of series [1] is Proteinase-activated receptor 2 (Homo sapiens) (UniProt P55085). In words: Inhibition of PAR2-mediated SLIGKV-NH2-induced interleukin-8 production in normal human epidermal keratinocytes preincubated for 24 hrs by ELISA.
Series [2] shares this target. In words: Inhibition of PAR2-mediated SLIGKV-NH2-induced interleukin-8 production in normal human epidermal keratinocytes up to 100 uM preincubated for 24 hrs by ELISA. On the technique in general: An ELISA detects its analyte on a solid surface through an enzyme-linked reagent.
Series [3] in a line: Toxicity in normal human epidermal keratinocytes assessed as effect on cell viability at 100 uM after 72 hrs by colorimetric assay. The series is classed as cell-based. Particulars: keratinocyte.
A short description of series [4]: Toxicity in normal human epidermal keratinocytes assessed as effect on cell viability at 10 uM after 72 hrs by colorimetric assay. The series is classed as cell-based. Particulars: keratinocyte.
Series [5] deals with Keratinocyte. The series can be described thus: Effect on PAR2 gene expression in normal human epidermal keratinocytes assessed as effect on cell viability at 10 uM after 72 hrs. The series is classed as functional, cell-based.
Series [6] concerns the target Proteinase-activated receptor 2 (Homo sapiens) (UniProt P55085). The series can be described thus: Inhibition of PAR2-mediated IL1-beta and SLIGKV-NH2-induced interleukin-8 production in normal human epidermal keratinocytes at 10 uM by ELISA.
The subject of series [7] is Keratinocyte. The series can be described thus: Effect on PAR2 gene expression in normal human epidermal keratinocytes assessed as effect on cell viability at 100 uM after 72 hrs. Type of series: functional, cell-based.
Series [8] addresses Proteinase-activated receptor 2 (Homo sapiens) (UniProt P55085). The series can be described thus: Inhibition of PAR2-mediated SLIGKV-NH2-induced interleukin-8 production in normal human epidermal keratinocytes at 5 uM preincubated for 24 hrs by ELISA.
Series [9] has the same target. In words: Inhibition of PAR2-mediated SLIGKV-NH2-induced interleukin-8 production in normal human epidermal keratinocytes at 100 uM preincubated for 24 hrs by ELISA.
Series [10] shares this target. In words: Inhibition of PAR2-mediated SLIGKV-NH2-induced interleukin-8 production in normal human epidermal keratinocytes at 10 uM preincubated for 24 hrs by ELISA.

The source made the active and inactive calls. The calls are words filed in the database; no cut-off is given here.

Sequence of Proteinase-activated receptor 2 (Homo sapiens) (P55085 whole entry): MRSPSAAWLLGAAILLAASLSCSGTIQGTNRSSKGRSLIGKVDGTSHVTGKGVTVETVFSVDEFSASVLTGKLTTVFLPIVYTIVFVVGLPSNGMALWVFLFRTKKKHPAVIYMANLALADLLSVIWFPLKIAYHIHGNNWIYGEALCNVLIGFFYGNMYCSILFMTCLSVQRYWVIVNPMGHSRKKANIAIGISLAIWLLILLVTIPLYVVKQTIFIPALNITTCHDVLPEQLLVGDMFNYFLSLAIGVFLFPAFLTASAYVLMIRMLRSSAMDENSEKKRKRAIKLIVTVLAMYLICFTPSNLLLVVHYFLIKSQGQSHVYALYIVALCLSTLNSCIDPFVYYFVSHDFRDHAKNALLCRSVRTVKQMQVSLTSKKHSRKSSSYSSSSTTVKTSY

Take `CO[C@@H]1[C@@H](O[C@@H]2O[C@H](C)[C@@H](O[C@H]3C[C@@](C)(O)[C@@H](OC(=O)CC(C)C)[C@H](C)O3)[C@H](N(C)C)[C@H]2O)[C@@H](CC=O)C[C@@H](C)[C@@H](O)/C=C/C=C/C[C@@H](C)OC(=O)C[C@H]1OC(C)=O`: the inhibition entry in series [1] was “inactive”.
For `CO[C@H]1C[C@H](O[C@H]2[C@H](C)[C@@H](O[C@@H]3O[C@H](C)C[C@H](N(C)C)[C@H]3O)[C@@H](C)C[C@@]3(CO3)C(=O)[C@H](C)[C@@H](O)[C@@H](C)[C@@H](C)OC(=O)[C@@H]2C)O[C@@H](C)[C@@H]1O`, the inhibition entry in series [1] was “inactive”.
Turning to `CC[C@H]1OC(=O)[C@H](C)[C@@H](O[C@H]2C[C@@](C)(OC)[C@@H](O)[C@H](C)O2)[C@H](C)[C@@H](O[C@@H]2O[C@H](C)C[C@H](N(C)C)[C@H]2O)[C@](C)(OC)C[C@@H](C)C(=O)[C@H](C)[C@@H](O)[C@]1(C)O` [CLARITHROMYCIN], the inhibition entry in series [2] is “inactive”. The Activity entry in [3] and in [4] was “Non-toxic” in each case. The result with Keratinocyte [5] and in the series on Keratinocyte [7] was inactive. In [6], the inhibition entry was “Active”.
For `CC[C@H]1OC(=O)[C@H](C)[C@@H](O[C@H]2C[C@@](C)(OC)[C@@H](O)[C@H](C)O2)[C@H](C)[C@@H](O[C@@H]2O[C@H](C)C[C@H](N(C)C)[C@H]2O)[C@](C)(O)C[C@@H](C)C(=O)[C@H](C)[C@@H](O)[C@]1(C)O` [ERYTHROMYCIN], the Activity entry in series [3] and in [4] was “Non-toxic” in each case. Moreover, the outcome with Keratinocyte [5] and with Keratinocyte [7] was inactive. Also, the inhibition result in series [8], in series [6], in series [9] and in [10] was “Active” each time.
Consider `CC[C@H]1OC(=O)[C@H](C)[C@@H](O[C@H]2C[C@@](C)(OC)[C@@H](O)[C@H](C)O2)[C@H](C)[C@@H](O[C@@H]2O[C@H](C)C[C@H](N(C)C)[C@H]2O)[C@](C)(O)C[C@@H](C)/C(=N\OCOCCOC)[C@H](C)[C@@H](O)[C@]1(C)O` [ROXITHROMYCIN], for which the Activity result in series [3] and in series [4] was “Non-toxic” in each case. For the same compound, the result in the series with Keratinocyte [5] and with Keratinocyte [7] was inactive. Moreover, the inhibition entry in series [6], in series [9] and in [10] was “Active” in each case.
As for SPIRAMYCIN, the inhibition result in series [1] is “inactive”.
